Assay results reported in patent US20230355727A1, “TREATMENT OF RETINAL DISORDERS” (Tel HaShomer Medical Research Infrastructure and Services …, priority 2020, published 2023).
“Also recorded” adds a separate entry of the source. Peptide text beside a SMILES is read from it. * marks the point of attachment. Tos = Cc1ccc(S(=O)(=O)*)cc1; CH2Cl = ClC*

How the values were obtained:
diabetic rats = conditions: STZ-induced diabetes; Shavit-Stein et al. PLoS One 2019; cited from earlier work
glioma cell lines = conditions: inhibition of thrombin activity and blocking PAR1 activation; Shavit-Stein et al. 2018; cited from earlier work
[1] = system: STZ-induced diabetic C57BL/6 mice; experiment: Retinal function by ERG in STZ-induced diabetic mice; format: in vivo, mouse
Description: Diabetes induction: Diabetes was induced in mice at age of 8 weeks by a single intraperitoneal injection of 150 mg/Kg STZ (Sigma-Aldrich). Blood glucose concentration was measured from the tail vein using Xpress-i glucometer (Nova Biomedical). Hyperglycemia was defined as blood glucose >[…] [Shavit-Stein et al. (2019) PLoS One 14, e0219453].
Electroretinogram (ERG): Mice were dark-adapted for 16 hours. ERG responses to light flashes at 5 increasing intensities (0.023, 0.249, 2.44, 7.8 and 23.5 cd-s/m^2) are recorded from both eyes simultaneously. Light-adapted ERG is similarly performed following 5 minutes light adaptation [Edelshtain et al. (2019) Algal Research 43, 101607].
C57BL/6 mice received either sham (PBS, n=5) or PARIN5 (100 nM in PBS, n=7) treatment for 7 days, starting at three days after diabetes induction by STZ injection. Retinal function was determined by ERG. Treatment included intraperitoneal (IP) injection (0.5 µl/gram, once a day) and eye drops (10 µl/eye, once a day).
In further experiments, STZ-induced diabetic were treated with eye drops, 100 nM PARIN5 in PBS (10 µl/eye, once a day), for 5 weeks. Non-diabetic mice and diabetic non-treated mice served as control.

ALS animal model SOD-1 = conditions: SOD-1 ALS animal model; cited from earlier work

Structure (SMILES): N=C(N)c1ccc(CC(NC(=O)CNS(=O)(=O)c2ccc3ccccc3c2)C(=O)N2CCCCC2)cc1 (racemic) [NAPAP, Nα-(2-naphthyl-sulphonyl-glycyl)-DL-p-amidinophenylalanyl-piperidine]
- Nerve conduction velocity in diabetic rats (diabetic rats): prevent the decreased nerve conduction velocity
- Growth of glioma cell lines (glioma cell lines): significantly inhibits their growth

Structure (SMILES): Cc1ccc(S(=O)(=O)N[C@H](C(=O)N[C@@H](CC(C)C)C(=O)N[C@@H](CC(=O)O)C(=O)N2CCC[C@H]2C(=O)N[C@@H](CCCNC(=N)N)C(=O)CCl)[C@@H](C)O)cc1 [PARIN5, ^37TLDPR^41-CMK] (Tos-TLDPR-CH2Cl)
- Retinal function by ERG b-wave after 5 weeks of daily eye drops, versus control non-diabetic mice ([1]; 100 nM in PBS eye drops, 10 µl/eye once a day, 5 weeks, measured 2 and 5 weeks after STZ, all p>0.3, FIG. 6): no significant differences; also recorded: protected the mouse retinal function
- Retinal function by ERG (b-wave) after 7-day treatment ([1]; 100 nM in PBS, IP injection 0.5 µl/gram plus eye drops 10 µl/eye, once a day, 7 days, from three days after STZ, versus sham PBS, FIG. 5): preserved mouse retinal function

Structure (SMILES): CC(C)c1ccc(Cn2ccc3c4c(N)nc(NC5CC5)nc4ccc32)cc1.Cl.Cl [SCH79797, N3..Cyclopropyl-7..[[4..(1.. methylethyl)phenyl]methyl]-7H-pyrrolo[3,2-f]quinazoline-1,3-diamine dihydrochloride]
- Life span of ALS model animals (ALS animal model SOD-1): increase the life span of these ALS model animals significantly

Structure (SMILES): Cc1ccc(S(=O)(=O)N[C@@H](CCCCN)C(=O)CCl)cc1 [TLCK, N-alpha-tosyl-L-lysine chloromethyl ketone]
- Life span of ALS model animals (ALS animal model SOD-1): increase the life span of these ALS model animals significantly
